The source of these data is patent US11370798B2 (Vertex Pharmaceuticals Incorporated, priority 2012, dated 2022).

The assay has as its system HCT116 colorectal cancer cells. Briefly: Cisplatin sensitization assay (96 h cell viability MTS).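 Note: Test-compound concentration that lowers the Cisplatin IC50 by a set fold.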 Format: cell-based. The conditions noted are these: compound and Cisplatin added simultaneously, Cisplatin sensitization value. The gist of the method: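 Compound and cisplatin added together as a full matrix of 2-fold serial dilutions from a top final concentration of 10 μM; cells incubated 96 h at 37° C, 5% CO2. Viability then read by MTS after 1 h further incubation; sensitization value reported in μM bins.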
In the case of `Nc1nn2cc(Cl)cnc2c1C(=O)Nc1cnccc1OC1CC2(CNC2)C1` [I-O-72, N-(4-(2-azaspiro[3.3]heptan-6-yloxy)pyridin-3-yl)-2-amino-6-chloropyrazolo[1,5-a]pyrimidine-3-carboxamide], the “Cisplatin Sensitization Assay” value is given as “+ (Cisplatin sensitization value>0.2 μM but <5 μM)”. As to `Nc1nn2cc(F)cnc2c1C(=O)Nc1cncc(F)c1N1CCC(N2CCCC2=O)CC1` [I-N-147, 2-amino-6-fluoro-N-(5-fluoro-4-(4-(2-oxopyrrolidin-1-yl)piperidin-1-yl)pyridin-3-yl)pyrazolo[1,5-a]pyrimidine-3-carboxamide], the “Cisplatin Sensitization Assay” value is on record as “+++ (Cisplatin sensitization value of <0.02 μM)”. The value for `CN(C)C(=O)C1CCCN(c2ccncc2NC(=O)c2c(N)nn3cc(F)cnc23)C1` (stereo not shown) [I-N-290, 2-amino-N-(4-(3-(dimethylcarbamoyl)piperidin-1-yl)pyridin-3-yl)-6-fluoropyrazolo[1,5-a]pyrimidine-3-carboxamide] was “++ (Cisplatin sensitization value>0.02 μM but <0.2 μM)”; that for `Nc1nn2cc(F)cnc2c1C(=O)Nc1cncc(F)c1C1=CCN(C2COC2)CC1` [I-C-12, 2-amino-6-fluoro-N-(5-fluoro-1′-(oxetan-3-yl)-1′,2′,3′,6′-tetrahydro-[4,4′-bipyridin]-3-yl)pyrazolo[1,5-a]pyrimidine-3-carboxamide] was “+++ (Cisplatin sensitization value of <0.02 μM)”; that for `Cc1cc(C(=O)N2CCN(C)CC2)ccc1-c1ccncc1NC(=O)c1c(N)nn2cc(F)cnc12` [I-C-45, 2-amino-6-fluoro-N-(4-(2-methyl-4-(4-methylpiperazine-1-carbonyl)phenyl)pyridin-3-yl)pyrazolo[1,5-a]pyrimidine-3-carboxamide] was “+++ (Cisplatin sensitization value of <0.02 μM)”.

Consider `CN1CCOC(C(=O)N2CCN(c3c(F)cncc3NC(=O)c3c(N)nn4cc(F)cnc34)CC2)C1` (stereo not shown) [I-N-174, 2-amino-6-fluoro-N-(5-fluoro-4-(4-(4-methylmorpholine-2-carbonyl)piperazin-1-yl)pyridin-3-yl)pyrazolo[1,5-a]pyrimidine-3-carboxamide], for which the “Cisplatin Sensitization Assay” value was “+++ (Cisplatin sensitization value of <0.02 μM)”. In the case of `CN1CCOC[C@@H]1c1ccc(-c2ccncc2NC(=O)c2c(N)nn3cc(F)cnc23)cc1` [I-C-66, (S)-2-amino-6-fluoro-N-(4-(4-(4-methylmorpholin-3-yl)phenyl)pyridin-3-yl)pyrazolo[1,5-a]pyrimidine-3-carboxamide] it was “+++ (Cisplatin sensitization value of <0.02 μM)”.

Consider `Nc1nn2cc(F)cnc2c1C(=O)Nc1cncc(F)c1N1CCC(C(=O)N2CC(O)C2)CC1` [I-G-41, 2-amino-6-fluoro-N-(5-fluoro-4-(4-(3-hydroxyazetidine-1-carbonyl)piperidin-1-yl)pyridin-3-yl)pyrazolo[1,5-a]pyrimidine-3-carboxamide], for which the “Cisplatin Sensitization Assay” value was “+++ (Cisplatin sensitization value of <0.02 μM)”. The value for `N#CCc1cnc2c(C(=O)Nc3cnccc3O[C@H]3CCOC3)c(N)nn2c1` [I-O-42, (S)-2-amino-6-(cyanomethyl)-N-(4-((tetrahydrofuran-3-yl)oxy)pyridin-3-yl)pyrazolo[1,5-a]pyrimidine-3-carboxamide] was “+++ (Cisplatin sensitization value of <0.02 μM)”. In the case of `Nc1nn2cc(F)cnc2c1C(=O)Nc1cncc(F)c1N1CCN(C2COC2)CC1` [I-N-13, 2-amino-6-fluoro-N-(5-fluoro-4-(4-(oxetan-3-yl)piperazin-1-yl)pyridin-3-yl)pyrazolo[1,5-a]pyrimidine-3-carboxamide] it was “+++ (Cisplatin sensitization value of <0.02 μM)”; in that of `CNC1CCN(c2ccncc2NC(=O)c2c(N)nn3cc(Cl)cnc23)CC1` [I-N-87, 2-amino-6-chloro-N-(4-(4-(methylamino)piperidin-1-yl)pyridin-3-yl)pyrazolo[1,5-a]pyrimidine-3-carboxamide], “++ (Cisplatin sensitization value>0.02 μM but <0.2 μM)”. In the case of `CCN1CCCC1C(=O)N1CCN(c2c(F)cncc2NC(=O)c2c(N)nn3cc(F)cnc23)CC1` (stereo not shown) [I-N-185, 2-amino-N-(4-(4-(1-ethylpyrrolidine-2-carbonyl)piperazin-1-yl)-5-fluoropyridin-3-yl)-6-fluoropyrazolo[1,5-a]pyrimidine-3-carboxamide], the “Cisplatin Sensitization Assay” value is listed as “++ (Cisplatin sensitization value>0.02 μM but <0.2 μM)”. The value for `CN1CCN(C(=O)C2(C#N)CCN(c3c(F)cncc3NC(=O)c3c(N)nn4cc(F)cnc34)CC2)CC1` [I-G-25, 2-amino-N-(4-(4-cyano-4-(4-methylpiperazine-1-carbonyl)piperidin-1-yl)-5-fluoropyridin-3-yl)-6-fluoropyrazolo[1,5-a]pyrimidine-3-carboxamide] was “+++ (Cisplatin sensitization value of <0.02 μM)”; that for `CN1CCN(C(=O)c2ccc(-c3ccncc3NC(=O)c3c(N)nn4cc(F)cnc34)cn2)CC1` [I-C-19, 2-amino-6-fluoro-N-(6-(4-methylpiperazine-1-carbonyl)-[3,4′-bipyridin]-3′-yl)pyrazolo[1,5-a]pyrimidine-3-carboxamide] was “++ (Cisplatin sensitization value>0.02 μM but <0.2 μM)”; that for `CO[C@H]1CCN(C(=O)C2CCN(c3ccncc3NC(=O)c3c(N)nn4cc(F)cnc34)CC2)C1` [I-G-94, (S)-2-amino-6-fluoro-N-(4-(4-(3-methoxypyrrolidine-1-carbonyl)piperidin-1-yl)pyridin-3-yl)pyrazolo[1,5-a]pyrimidine-3-carboxamide] was “+++ (Cisplatin sensitization value of <0.02 μM)”. The value for `Nc1nn2cc(Cl)cnc2c1C(=O)Nc1cnccc1OC1CCNCC1` [I-O-80, 2-amino-6-chloro-N-(4-(piperidin-4-yloxy)pyridin-3-yl)pyrazolo[1,5-a]pyrimidine-3-carboxamide] was “+++ (Cisplatin sensitization value of <0.02 μM)”; that for `CN1CCN(c2cc(N)ncc2NC(=O)c2c(N)nn3cc(Cl)cnc23)CC1` [I-N-50, 2-amino-N-(6-amino-4-(4-methylpiperazin-1-yl)pyridin-3-yl)-6-chloropyrazolo[1,5-a]pyrimidine-3-carboxamide] was “+ (Cisplatin sensitization value>0.2 μM but <5 μM)”. In the case of `CS(=O)(=O)C1CN(C(=O)C2CCN(c3ccncc3NC(=O)c3c(N)nn4cc(F)cnc34)CC2)C1` [I-G-89, 2-amino-6-fluoro-N-(4-(4-(3-(methylsulfonyl)azetidine-1-carbonyl)piperidin-1-yl)pyridin-3-yl)pyrazolo[1,5-a]pyrimidine-3-carboxamide] it was “+ (Cisplatin sensitization value>0.2 μM but <5 μM)”. For the compound `Nc1nn2cc(F)cnc2c1C(=O)Nc1cncc(F)c1N1CCN(C(=O)C2CNC2)CC1` [I-N-168, 2-amino-N-(4-(4-(azetidine-3-carbonyl)piperazin-1-yl)-5-fluoropyridin-3-yl)-6-fluoropyrazolo[1,5-a]pyrimidine-3-carboxamide], the “Cisplatin Sensitization Assay” value is listed as “+ (Cisplatin sensitization value>0.2 μM but <5 μM)”. The value for `Nc1nn2cc(Cl)cnc2c1C(=O)Nc1cnccc1OC1CN2CCC1CC2` (stereo not shown) [I-O-62, 2-amino-6-chloro-N-(4-(quinuclidin-3-yloxy)pyridin-3-yl)pyrazolo[1,5-a]pyrimidine-3-carboxamide] was “+++ (Cisplatin sensitization value of <0.02 μM)”; that for `Nc1nn2cc(F)cnc2c1C(=O)Nc1cncc(F)c1N1CCC(C(=O)N2CC(N3CCCC3)C2)CC1` [I-G-43, 2-amino-6-fluoro-N-(5-fluoro-4-(4-(3-(pyrrolidin-1-yl)azetidine-1-carbonyl)piperidin-1-yl)pyridin-3-yl)pyrazolo[1,5-a]pyrimidine-3-carboxamide] was “+++ (Cisplatin sensitization value of <0.02 μM)”; that for `Cc1ncn(-c2ccncc2NC(=O)c2c(N)nn3cc(F)cnc23)c1C` [I-N-269, 2-amino-N-(4-(4,5-dimethyl-1H-imidazol-1-yl)pyridin-3-yl)-6-fluoropyrazolo[1,5-a]pyrimidine-3-carboxamide] was “++ (Cisplatin sensitization value>0.02 μM but <0.2 μM)”. The value for `COc1ccncc1NC(=O)c1c(N)nn2cc(CC#N)cnc12` [I-O-26, 2-amino-6-(cyanomethyl)-N-(4-methoxypyridin-3-yl)pyrazolo[1,5-a]pyrimidine-3-carboxamide] was “++ (Cisplatin sensitization value>0.02 μM but <0.2 μM)”. Turning to `N#C[C@@H]1CCN(c2c(Cl)cncc2NC(=O)c2c(N)nn3cc(F)cnc23)C1` [I-N-285, (R)-2-amino-N-(5-chloro-4-(3-cyanopyrrolidin-1-yl)pyridin-3-yl)-6-fluoropyrazolo[1,5-a]pyrimidine-3-carboxamide], the “Cisplatin Sensitization Assay” value is on record as “++ (Cisplatin sensitization value>0.02 μM but <0.2 μM)”. On to `CN1CC[C@@H](OC2CCN(c3ccncc3NC(=O)c3c(N)nn4cc(F)cnc34)CC2)C1` [I-N-131], for which the “Cisplatin Sensitization Assay” value was “+++ (Cisplatin sensitization value of <0.02 μM)”. In the case of `Nc1nn2cc(F)cnc2c1C(=O)Nc1cnccc1N1CCC(C(=O)N2CC(F)(F)C2)CC1` [I-G-80, 2-amino-N-(4-(4-(3,3-difluoroazetidine-1-carbonyl)piperidin-1-yl)pyridin-3-yl)-6-fluoropyrazolo[1,5-a]pyrimidine-3-carboxamide] it was “+++ (Cisplatin sensitization value of <0.02 μM)”; in that of `Nc1nn2cc(Cl)cnc2c1C(=O)Nc1cnccc1N1CCNC(C(F)(F)F)C1` (stereo not shown) [I-N-70, 2-amino-6-chloro-N-(4-(3-(trifluoromethyl)piperazin-1-yl)pyridin-3-yl)pyrazolo[1,5-a]pyrimidine-3-carboxamide], “++ (Cisplatin sensitization value>0.02 μM but <0.2 μM)”; in that of `CN1CCc2c(cncc2NC(=O)c2c(N)nn3cc(F)cnc23)C1` [I-C-8, 2-amino-6-fluoro-N-(7-methyl-5,6,7,8-tetrahydro-2,7-naphthyridin-4-yl)pyrazolo[1,5-a]pyrimidine-3-carboxamide], “+ (Cisplatin sensitization value>0.2 μM but <5 μM)”.
